Data taken from patent publication US12696901B2, “Pesticidally active heterocyclic derivatives with sulfur containing substituents” (SYNGENTA CROP PROTECTION AG, priority 2020, dated 2026).

Tests used:
Assay type in all cases: in vivo
[1] = test system: Diabrotica balteata (Corn Root Worm); assay: Activity against Diabrotica balteata (corn root worm), sprayed maize sprouts on agar; conditions: 96 h, application rate 200 ppm, L2 larvae, 4 days after infestation, read-out: effect in at least one of the two categories (mortality or growth inhibition)
Procedure: Example B2: Activity Against Diabrotica balteata (Corn Root Worm)
Maize sprouts placed onto an agar layer in 24-well microtiter plates were treated with aqueous test solutions prepared from 10,000 ppm DMSO stock solutions by spraying. After drying, the plates were infested with L2 larvae (6 to 10 per well). The samples were assessed for mortality and growth inhibition in comparison to untreated samples 4 days after infestation.

[2] = test system: Euschistus heros (Neotropical Brown Stink Bug); assay: Activity against Euschistus heros (neotropical brown stink bug), sprayed soybean leaves; conditions: 120 h, application rate 200 ppm, N2 nymphs, 5 days after infestation, read-out: effect in at least one of the two categories (mortality or growth inhibition)
Procedure: Example B3: Activity Against Euschistus heros (Neotropical Brown Stink Bug)
Soybean leaves on agar in 24-well microtiter plates were sprayed with aqueous test solutions prepared from 10,000 ppm DMSO stock solutions. After drying the leaves were infested with N2 nymphs. The samples were assessed for mortality and growth inhibition in comparison to untreated samples 5 days after infestation.

[3] = test system: Frankliniella occidentalis (Western Flower Thrips); assay: Activity against Frankliniella occidentalis (western flower thrips), sprayed sunflower leaf discs; conditions: foliar, 168 h, application rate 200 ppm, population of mixed ages, 7 days after infestation
Procedure: Example B4: Activity Against Frankliniella occidentalis (Western Flower Thrips)
Sunflower leaf discs were placed on agar in 24-well microtiter plates and sprayed with aqueous test solutions prepared from 10,000 ppm DMSO stock solutions. After drying the leaf discs were infested with a Frankliniella population of mixed ages. The samples were assessed for mortality 7 days after infestation.

[4] = test system: Plutella xylostella (Diamond Back Moth); assay: Activity against Plutella xylostella (diamond back moth), treated artificial diet; conditions: 192 h, application rate 200 ppm, eggs, 8 days after infestation, read-out: effect in at least one of the two categories (mortality or growth inhibition)
Procedure: Example B5: Activity Against Plutella xylostella (Diamond Back Moth)
24-well microtiter plates with artificial diet were treated with aqueous test solutions prepared from 10,000 ppm DMSO stock solutions by pipetting. After drying, Plutella eggs were pipetted through a plastic stencil onto a gel blotting paper and the plate was closed with it. The samples were assessed for mortality and growth inhibition in comparison to untreated samples 8 days after infestation.

[5] = test system: Myzus persicae (Green Peach Aphid); assay: Activity against Myzus persicae (green peach aphid), feeding/contact activity; conditions: 144 h, application rate 200 ppm, mixed ages, 6 days after infestation
Procedure: Example B6: Activity Against Myzus persicae (Green Peach Aphid) Feeding/Contact Activity
Sunflower leaf discs were placed onto agar in a 24-well microtiter plate and sprayed with aqueous test solutions prepared from 10,000 ppm DMSO stock solutions. After drying, the leaf discs were infested with an aphid population of mixed ages. The samples were assessed for mortality 6 days after infestation.

[6] = test system: Spodoptera littoralis (Egyptian Cotton Leaf Worm); assay: Activity against Spodoptera littoralis (Egyptian cotton leaf worm), sprayed cotton leaf discs; conditions: foliar, 72 h, application rate 200 ppm, L1 larvae, 3 days after infestation
Procedure: Example B7: Activity Against Spodoptera littoralis (Egyptian Cotton Leaf Worm)
Cotton leaf discs were placed onto agar in 24-well microtiter plates and sprayed with aqueous test solutions prepared from 10,000 ppm DMSO stock solutions. After drying the leaf discs were infested with five L1 larvae. The samples were assessed for mortality, anti-feeding effect, and growth inhibition in comparison to untreated samples 3 days after infestation. Control of Spodoptera littoralis by a test sample is given when at least one of the categories mortality, anti-feedant effect, and growth inhibition is higher than the untreated sample.

[7] = test system: Chilo suppressalis (Striped Rice Stemborer); assay: Activity against Chilo suppressalis (striped rice stemborer), treated artificial diet; conditions: 144 h, application rate 200 ppm, L2 larvae, 6 days after infestation
Procedure: Example B10: Activity Against Chilo suppressalis (Striped Rice Stemborer)
24-well microtiter plates with artificial diet were treated with aqueous test solutions prepared from 10,000 ppm DMSO stock solutions by pipetting. After drying, the plates were infested with L2 larvae (6-8 per well). The samples were assessed for mortality, anti-feeding effect, and growth inhibition in comparison to untreated samples 6 days after infestation. Control of Chilo suppressalis by a test sample is given when at least one of the categories mortality, anti-feedant effect, and growth inhibition is higher than the untreated sample.

[8] = test system: Carpocapsa (Cydia) Pomonella (Codling Moth); assay: Activity against Carpocapsa (Cydia) pomonella (codling moth), sprayed diet cubes; conditions: 336 h, application rate 12.5 ppm, L1 larvae, 14 days after infestation, read-out: effect in at least one of the two categories (mortality or growth inhibition)
Procedure: Example B11: Activity Against Carpocapsa (Cydia) Pomonella (Codling Moth)
Diet cubes coated with paraffin were sprayed with diluted test solutions in an application chamber. After drying off the treated cubes (10 replicates) were infested with 1 L1 larvae. Samples were incubated at 26-27° C. and checked 14 days after infestation for mortality and growth inhibition. The following compounds gave an effect of at least 80% in at least one of the two categories (mortality or growth inhibition) at an application rate of 12.5 ppm: P1, P2, P3, P4, P5, P6, P10, P11, P12, P14, P15, P16, P17, P19, P20, P21, P22, P24, P27, P29, P30, P33, P34, P35.

[9] = test system: Diabrotica balteata (Corn Root Worm); assay: Activity against Diabrotica balteata (corn root worm), corn seedlings on filter paper in cups; conditions: 120 h, application rate 3 ppm, L2 larva, 5 days after treatment, read-out: effect in at least one of the two categories (mortality or growth inhibition)
Procedure: Example B12: Activity Against Diabrotica Balteata (Corn Root Worm)
Three corn seedlings were placed on wetted filter paper in plastic cups, and 3 ml of diluted test solutions were pipetted onto them. The cups were infested with 10 L2 larva and checked for mortality and growth regulation 5 days after treatment.

[10] = test system: Bemisia tabaci (Cotton White Fly); assay: Activity against Bemisia tabaci (cotton white fly), sprayed cotton leaf discs; conditions: foliar, 144 h, application rate 200 ppm, adult white flies, 6 days after incubation
Procedure: Example B1: Activity Against Bemisia tabaci (Cotton White Fly)
Cotton leaf discs were placed on agar in 24-well microtiter plates and sprayed with aqueous test solutions prepared from 10,000 ppm DMSO stock solutions. After drying the leaf discs were infested with adult white flies. The samples were checked for mortality 6 days after incubation.

CCS(=O)(=O)c1c(N2Cc3ncc(C(F)(F)F)cc3C2=O)nc2ccc(C3CC3)cn12 [Compound P27, 6-(6-cyclopropyl-3-ethylsulfonyl-imidazo [1,2-a]pyridin-2-yl)-3-(trifluoromethyl)-7H-pyrrolo[3,4-b]pyridin-5-one]
≥ 80%: percent effect (mortality or growth inhibition) at 200 ppm [1] | percent effect (mortality or growth inhibition) at 200 ppm [2] | mortality at 200 ppm [3] | percent effect (mortality or growth inhibition) at 200 ppm [4] | mortality at 200 ppm [5] | percent control (mortality, anti-feedant effect or growth inhibition) at 200 ppm [6] | percent control (mortality, anti-feedant effect or growth inhibition) at 200 ppm [7] | percent effect (mortality or growth inhibition) at 12.5 ppm [8] | percent effect (mortality or growth inhibition) at 3 ppm [9]

CCS(=O)(=O)c1c(N2Cc3ncc(C(F)(F)F)cc3C2=O)nc2ccc(OC(C)(C)C#N)cn12 [Compound P20, 2-[3-ethylsulfonyl-2-[5-oxo-3-(trifluoromethyl)-7H-pyrrolo[3,4-b]pyridin-6-yl]imidazo [1,2-a]pyridin-6-yl] oxy-2-methyl-propanenitrile]
≥ 80%: mortality at 200 ppm [10] | percent effect (mortality or growth inhibition) at 200 ppm [1] | percent effect (mortality or growth inhibition) at 200 ppm [4] | mortality at 200 ppm [5] | percent control (mortality, anti-feedant effect or growth inhibition) at 200 ppm [6] | percent control (mortality, anti-feedant effect or growth inhibition) at 200 ppm [7] | percent effect (mortality or growth inhibition) at 12.5 ppm [8] | percent effect (mortality or growth inhibition) at 3 ppm [9]

CCS(=O)(=O)c1c(N2Cc3ccc(OC(F)(F)F)cc3C2=O)nc2ccc(OC(C)(C)C#N)cn12 [Compound P26, 2-[3-ethylsulfonyl-2-[1-oxo-6-(trifluoromethoxy)isoindolin-2-yl]imidazo[1,2-a]pyridin-6-yl]oxy-2-methyl-propanenitrile]
≥ 80%: mortality at 200 ppm [10] | percent effect (mortality or growth inhibition) at 200 ppm [1] | percent effect (mortality or growth inhibition) at 200 ppm [4] | mortality at 200 ppm [5] | percent control (mortality, anti-feedant effect or growth inhibition) at 200 ppm [6] | percent control (mortality, anti-feedant effect or growth inhibition) at 200 ppm [7] | percent effect (mortality or growth inhibition) at 3 ppm [9]

CCS(=O)(=O)c1c(N2Cc3cnc(C(F)(F)F)cc3C2=O)sc2cc(C(F)(F)F)ccc12 [Compound P1, 2-[3-ethylsulfonyl-6-(trifluoromethyl)benzothiophen-2-yl]-6-(trifluoromethyl)-3H-pyrrolo[3,4-c]pyridin-1-one]
≥ 80%: mortality at 200 ppm [10] | percent effect (mortality or growth inhibition) at 200 ppm [1] | percent effect (mortality or growth inhibition) at 200 ppm [2] | percent effect (mortality or growth inhibition) at 200 ppm [4] | mortality at 200 ppm [5] | percent control (mortality, anti-feedant effect or growth inhibition) at 200 ppm [6] | percent effect (mortality or growth inhibition) at 12.5 ppm [8] | percent effect (mortality or growth inhibition) at 3 ppm [9]

CCS(=O)(=O)c1c(N2Cc3ccc(OC(F)(F)F)cc3C2=O)nc2cc(C3(C#N)CC3)ccn12 [Compound P5, 1-[3-ethylsulfonyl-2-[1-oxo-6-(trifluoromethoxy)isoindolin-2-yl]imidazo[1,2-a]pyridin-7-yl] cyclopropane-carbonitrile]
≥ 80%: mortality at 200 ppm [10] | percent effect (mortality or growth inhibition) at 200 ppm [1] | percent effect (mortality or growth inhibition) at 200 ppm [2] | mortality at 200 ppm [3] | percent effect (mortality or growth inhibition) at 200 ppm [4] | mortality at 200 ppm [5] | percent control (mortality, anti-feedant effect or growth inhibition) at 200 ppm [6] | percent effect (mortality or growth inhibition) at 12.5 ppm [8] | percent effect (mortality or growth inhibition) at 3 ppm [9]

CCS(=O)(=O)c1c(N2Cc3ccc(OC(F)(F)F)cc3C2=O)nc2ccc(C(F)(F)F)cn12 [Compound P6, 2-[3-ethylsulfonyl-6-(trifluoromethyl)imidazo[1,2-a]pyridin-2-yl]-6-(trifluoromethoxy) isoindolin-1-one]
≥ 80%: mortality at 200 ppm [10] | percent effect (mortality or growth inhibition) at 200 ppm [1] | percent effect (mortality or growth inhibition) at 200 ppm [2] | percent effect (mortality or growth inhibition) at 200 ppm [4] | mortality at 200 ppm [5] | percent control (mortality, anti-feedant effect or growth inhibition) at 200 ppm [6] | percent effect (mortality or growth inhibition) at 12.5 ppm [8] | percent effect (mortality or growth inhibition) at 3 ppm [9]

CCS(=O)(=O)c1c(N2Cc3ncc(C(F)(F)F)cc3C2=O)nc2ccc(C(F)(F)F)cn12 [Compound P4, 6-[3-ethylsulfonyl-6-(trifluoromethyl)imidazo[1,2-a]pyridin-2-yl]-3-(trifluoromethyl)-7H-pyrrolo[3,4-b] pyridin-5-one]
≥ 80%: mortality at 200 ppm [10] | percent effect (mortality or growth inhibition) at 200 ppm [1] | percent effect (mortality or growth inhibition) at 200 ppm [2] | percent effect (mortality or growth inhibition) at 200 ppm [4] | mortality at 200 ppm [5] | percent control (mortality, anti-feedant effect or growth inhibition) at 200 ppm [6] | percent effect (mortality or growth inhibition) at 12.5 ppm [8] | percent effect (mortality or growth inhibition) at 3 ppm [9]

CCS(=O)(=O)c1c(N2Cc3ccc(OC(F)(F)F)cc3C2=O)nc2cc(C(F)(F)F)ccn12 [Compound P7, 2-[3-ethylsulfonyl-7-(trifluoromethyl)imidazo[1,2-a]pyridin-2-yl]-6-(trifluoromethoxy) isoindolin-1-one]
≥ 80%: mortality at 200 ppm [10] | percent effect (mortality or growth inhibition) at 200 ppm [1] | percent effect (mortality or growth inhibition) at 200 ppm [4] | mortality at 200 ppm [5] | percent control (mortality, anti-feedant effect or growth inhibition) at 200 ppm [6] | percent effect (mortality or growth inhibition) at 3 ppm [9]
